Eleven compounds from patent US9499550B2 (BRISTOL-MYERS SQUIBB COMPANY, priority 2012, dated 2016) can be followed below.

For assay [1], the system named is HCV genotype 1a (H77 strain) replicon in HUH-7 cells. The assay is described as follows: HCV replicon luciferase reporter assay, genotype 1a. The note with it: Hepatitis C virus, Huh-7, 72 h, HCV genotype 1a replicon luciferase, 3 days incubation. The format is cell-based. The method, boiled down:
(§1)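 Replicon inhibition for both genotypes was measured as Renilla luciferase signal (EnduRen, 7.5 μM final, 2 h) after 3-day, 37° C exposure of replicon-bearing HUH-7 cells in 4% FCS DMEM, 0.5% DMSO. The 1b construct carries S1179I; the 1a H77 construct carries P1496L and S2204I. Twenty-point, 3-fold dilutions were fitted four-parametrically for EC50, and CC50 was taken from multiplexed Cell Titer-Blue.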
(Replicon systems follow genome replication, usually without infectious particles.)

For assay [2], the system named is HCV genotype 1b (Con1) replicon in HUH-7 cells. In words: HCV replicon luciferase reporter assay, genotype 1b. The format is cell-based. The note with it: Hepatitis C virus, Huh-7, 72 h, HCV genotype 1b replicon luciferase, 3 days incubation. The procedure, abridged: as §1

pEC50: −log10 of the molar value. Read-outs that look alike come from different tables or passages of the source.

By pEC50 is commonly meant the EC50 on a negative log10 scale, so that one unit is a factor of ten. For `C[C@@H]1CC/C=C\[C@@H]2C[C@@]2(C(=O)NS(=O)(=O)C2(C)CC2)NC(=O)[C@@H]2C[C@@H](Oc3nccc4c5c(ccc34)CCCO5)CN2C(=O)[C@@H](NC(=O)OC(C)(C)C(C)(F)F)[C@H](C)C1` [Compound 6060, 3,3-difluoro-2-methylbutan-2-yl((2R,6S,7R,9R,13aS,14aR,16aS,Z)-2-((3,4-dihydro-2H-pyrano[2,3-f]isoquinolin-7-yl)oxy)-7,9-dimethyl-14a-(((1-methylcyclopropyl)sulfonyl)carbamoyl)-5,16-dioxo-1,2,3,5,6,7,8,9,10,11,13a,14,14a,15,16,16a-hexadecahydrocyclopropa[e]pyrrolo[1,2-a][1,4]diazacyclopentadecin-6-yl)carbamate], the negative-log EC50 (pEC50) in assay [1] (read-out: LE_1a (EC50, range)) is 8.30 to 9.00; in assay [2] (read-out: LE_1b (EC50, range)), 8.30 to 9.00.
With `CC[C@@H]1C[C@H](C)CC/C=C\[C@@H]2C[C@@]2(C(=O)NS(=O)(=O)C2(C)CC2)NC(=O)[C@@H]2C[C@@H](Oc3nccc4c5c(ccc34)CCCO5)CN2C(=O)[C@H]1NC(=O)OC(C)(C)C(F)(F)F` [Compound 6062, 1,1,1-trifluoro-2-methylpropan-2-yl((2R,6S,7R,9R,13aS,14aR,16aS,Z)-2-((3,4-dihydro-2H-pyrano[2,3-f]isoquinolin-7-yl)oxy)-7-ethyl-9-methyl-14a-(((1-methylcyclopropyl)sulfonyl)carbamoyl)-5,16-dioxo-1,2,3,5,6,7,8,9,10,11,13a,14,14a,15,16,16a-hexadecahydrocyclopropa[e]pyrrolo[1,2-a][1,4]diazacyclopentadecin-6-yl)carbamate], the pEC50 in assay [1] (read-out: LE_1a (EC50, range)) was 8.30 to 9.00; in assay [2] (read-out: LE_1b (EC50, range)), 9.00 to 9.29.
In the same order, the values of `CC[C@@H]1C[C@H](C)CC/C=C\[C@@H]2C[C@@]2(C(=O)NS(=O)(=O)C2(C)CC2)NC(=O)[C@@H]2C[C@@H](Oc3nc4c(c5ccccc35)CCCO4)CN2C(=O)[C@H]1NC(=O)OC(C)(C)C` [Compound 6064, tert-butyl ((2R,6S,7R,9R,13aS,14aR,16aS,Z)-2-((2,3-dihydro-1H-pyrano[2,3-c]isoquinolin-6-yl)oxy)-7-ethyl-9-methyl-14a-(((1-methylcyclopropyl)sulfonyl)carbamoyl)-5,16-dioxo-1,2,3,5,6,7,8,9,10,11,13a,14,14a,15,16,16a-hexadecahydrocyclopropa[e]pyrrolo[1,2-a][1,4]diazacyclopentadecin-6-yl)carbamate] are 9.00 to 9.29 and 9.30 to 10.00.
In the same order, the values of `C[C@@H]1CC/C=C\[C@@H]2C[C@@]2(C(=O)NS(=O)(=O)C2(CF)CC2)NC(=O)[C@@H]2C[C@@H](Oc3nccc4c5c(ccc34)CCCO5)CN2C(=O)[C@@H](NC(=O)OC(C)(C)C(F)(F)F)[C@H](C)C1` [Compound 6066, 1,1,1-trifluoro-2-methylpropan-2-yl((2R,6S,7R,9R,13aS,14aR,16aS,Z)-2-((3,4-dihydro-2H-pyrano[2,3-f]isoquinolin-7-yl)oxy)-14a-(((1-(fluoromethyl)cyclopropyl)sulfonyl)carbamoyl)-7,9-dimethyl-5,16-dioxo-1,2,3,5,6,7,8,9,10,11,13a,14,14a,15,16,16a-hexadecahydrocyclopropa[e]pyrrolo[1,2-a][1,4]diazacyclopentadecin-6-yl)carbamate] are 8.30 to 9.00 and 8.30 to 9.00.
As to `CC[C@@H]1C[C@H](C)CC/C=C\[C@@H]2C[C@@]2(C(=O)NS(=O)(=O)C2(CF)CC2)NC(=O)[C@@H]2C[C@@H](Oc3nc4c(c5ccccc35)CCCO4)CN2C(=O)[C@H]1NC(=O)OC(C)(C)C(F)(F)F` [Compound 6068, 1,1,1-trifluoro-2-methylpropan-2-yl((2R,6S,7R,9R,13aS,14aR,16aS,Z)-2-((2,3-dihydro-1H-pyrano[2,3-c]isoquinolin-6-yl)oxy)-7-ethyl-14a-(((1-(fluoromethyl)cyclopropyl)sulfonyl)carbamoyl)-9-methyl-5,16-dioxo-1,2,3,5,6,7,8,9,10,11,13a,14,14a,15,16,16a-hexadecahydrocyclopropa[e]pyrrolo[1,2-a][1,4]diazacyclopentadecin-6-yl)carbamate], the pEC50 is 8.30 to 9.00 in assay [1] (read-out: LE_1a (EC50, range)) and 9.00 to 9.29 in assay [2] (read-out: LE_1b (EC50, range)).
On the same counts, the results for `CC[C@@H]1C[C@H](C)CC/C=C\[C@@H]2C[C@@]2(C(=O)NS(=O)(=O)C2(CF)CC2)NC(=O)[C@@H]2C[C@@H](Oc3nc4c(c5ccccc35)CCCO4)CN2C(=O)[C@H]1NC(=O)OC(C)(C)C(C)(F)F` [Compound 6070, 3,3-difluoro-2-methylbutan-2-yl((2R,6S,7R,9R,13aS,14aR,16aS,Z)-2-((2,3-dihydro-1H-pyrano[2,3-c]isoquinolin-6-yl)oxy)-7-ethyl-14a-(((1-(fluoromethyl)cyclopropyl)sulfonyl)carbamoyl)-9-methyl-5,16-dioxo-1,2,3,5,6,7,8,9,10,11,13a,14,14a,15,16,16a-hexadecahydrocyclopropa[e]pyrrolo[1,2-a][1,4]diazacyclopentadecin-6-yl)carbamate] are 8.30 to 9.00 and 9.00 to 9.29.
In the same order, the values of `CC[C@@H]1C[C@H](C)CC/C=C\[C@@H]2C[C@@]2(C(=O)NS(=O)(=O)C2(CF)CC2)NC(=O)[C@@H]2C[C@@H](Oc3nc4c(c5ccccc35)CCCO4)CN2C(=O)[C@H]1NC(=O)OC(C)(C)C(F)F` [Compound 6072, 1,1-difluoro-2-methylpropan-2-yl((2R,6S,7R,9R,13aS,14aR,16aS,Z)-2-((2,3-dihydro-1H-pyrano[2,3-c]isoquinolin-6-yl)oxy)-7-ethyl-14a-(((1-(fluoromethyl)cyclopropyl)sulfonyl)carbamoyl)-9-methyl-5,16-dioxo-1,2,3,5,6,7,8,9,10,11,13a,14,14a,15,16,16a-hexadecahydrocyclopropa[e]pyrrolo[1,2-a][1,4]diazacyclopentadecin-6-yl)carbamate] are 8.30 to 9.00 and 9.00 to 9.29.
With `C[C@@H]1CC/C=C\[C@@H]2C[C@@]2(C(=O)NS(=O)(=O)C2(CF)CC2)NC(=O)[C@@H]2C[C@@H](Oc3nc4c(c5ccccc35)CCCO4)CN2C(=O)[C@@H](NC(=O)OC(C)(C)C(F)F)[C@H](C)C1` [Compound 6074, 1,1-difluoro-2-methylpropan-2-yl((2R,6S,7R,9R,13aS,14aR,16aS,Z)-2-((2,3-dihydro-1H-pyrano[2,3-c]isoquinolin-6-yl)oxy)-14a-(((1-(fluoromethyl)cyclopropyl)sulfonyl)carbamoyl)-7,9-dimethyl-5,16-dioxo-1,2,3,5,6,7,8,9,10,11,13a,14,14a,15,16,16a-hexadecahydrocyclopropa[e]pyrrolo[1,2-a][1,4]diazacyclopentadecin-6-yl)carbamate], the pEC50 is 9.00 to 9.29 in assay [1] (read-out: LE_1a (EC50, range)) and 8.30 to 9.00 in assay [2] (read-out: LE_1b (EC50, range)).
On the same counts, the results for `COc1ccc2c(O[C@@H]3C[C@H]4C(=O)N[C@]5(C(=O)NS(=O)(=O)C6(CF)CC6)C[C@H]5/C=C\CC[C@@H](C)C[C@@H](C)[C@H](NC(=O)OC(C)(C)C(F)(F)F)C(=O)N4C3)nc3c(c2c1)CCCO3` [Compound 6076, 1,1,1-trifluoro-2-methylpropan-2-yl((2R,6S,7R,9R,13aS,14aR,16aS,Z)-14a-(((1-(fluoromethyl)cyclopropyl)sulfonyl)carbamoyl)-2-((9-methoxy-2,3-dihydro-1H-pyrano[2,3-c]isoquinolin-6-yl)oxy)-7,9-dimethyl-5,16-dioxo-1,2,3,5,6,7,8,9,10,11,13a,14,14a,15,16,16a-hexadecahydrocyclopropa[e]pyrrolo[1,2-a][1,4]diazacyclopentadecin-6-yl)carbamate] are 8.30 to 9.00 and 8.30 to 9.00.
On the same counts, the results for `COc1ccc2c(O[C@@H]3C[C@H]4C(=O)N[C@]5(C(=O)NS(=O)(=O)C6(CF)CC6)C[C@H]5/C=C\CC[C@@H](C)C[C@@H](C)[C@H](NC(=O)OC(C)(C)C(F)F)C(=O)N4C3)nc3c(c2c1)CCCO3` [Compound 6078, 1,1-difluoro-2-methylpropan-2-yl((2R,6S,7R,9R,13aS,14aR,16aS,Z)-14a-(((1-(fluoromethyl)cyclopropyl)sulfonyl)carbamoyl)-2-((9-methoxy-2,3-dihydro-1H-pyrano[2,3-c]isoquinolin-6-yl)oxy)-7,9-dimethyl-5,16-dioxo-1,2,3,5,6,7,8,9,10,11,13a,14,14a,15,16,16a-hexadecahydrocyclopropa[e]pyrrolo[1,2-a][1,4]diazacyclopentadecin-6-yl)carbamate] are 8.30 to 9.00 and 8.30 to 9.00.
Consider `COc1ccc2c(O[C@@H]3C[C@H]4C(=O)N[C@]5(C(=O)NS(=O)(=O)C6(C)CC6)C[C@H]5/C=C\CC[C@@H](C)C[C@@H](C)[C@H](NC(=O)OC(C)(C)C(F)(F)F)C(=O)N4C3)nc3c(c2c1)CCCO3` [Compound 6080, 1,1,1-trifluoro-2-methylpropan-2-yl((2R,6S,7R,9R,13aS,14aR,16aS,Z)-2-((9-methoxy-2,3-dihydro-1H-pyrano[2,3-c]isoquinolin-6-yl)oxy)-7,9-dimethyl-14a-(((1-methylcyclopropyl)sulfonyl)carbamoyl)-5,16-dioxo-1,2,3,5,6,7,8,9,10,11,13a,14,14a,15,16,16a-hexadecahydrocyclopropa[e]pyrrolo[1,2-a][1,4]diazacyclopentadecin-6-yl)carbamate], for which the pEC50 in assay [1] (read-out: LE_1a (EC50)) is 9.51; in assay [1] (read-out: LE_1a (EC50, range)), 9.30 to 10.00; in assay [2] (read-out: LE_1b (EC50)) it was 9.10; in assay [2] (read-out: LE_1b (EC50, range)), 9.00 to 9.29.
